Assay results: PubChem BioAssay (NCI)
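Protocol summary: plate cells (96-well), add compound at 5 concentrations, incubate 48 h, interpolate endpoints linearly. TGI denotes the concentration required for complete inhibition of growth.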

Tests used:
Assay in all cases: NCI-60 cell line screen, 48 h
MALME-3M melanoma = test system: MALME-3M melanoma
786-0 renal = test system: 786-0 renal
T-47D breast = test system: T-47D breast
NCI-H522 lung = test system: NCI-H522 lung
MCF7 breast = test system: MCF7 breast
U251 CNS = test system: U251 CNS
RXF 393 renal = test system: RXF 393 renal
NCI-H460 lung = test system: NCI-H460 lung
SNB-19 CNS = test system: SNB-19 CNS
COLO 205 colon = test system: COLO 205 colon
SF-539 CNS = test system: SF-539 CNS
HCC-2998 colon = test system: HCC-2998 colon
HCT-116 colon = test system: HCT-116 colon
UO-31 renal = test system: UO-31 renal
CAKI-1 renal = test system: CAKI-1 renal
MDA-MB-231 breast = test system: MDA-MB-231 breast
A549 NSCLC = test system: A549 NSCLC
HOP-62 NSCLC = test system: HOP-62 NSCLC
HT29 colon = test system: HT29 colon

Structure (SMILES) | TGI (MALME-3M melanoma) [µM] | TGI (786-0 renal) [µM] | TGI (T-47D breast) [µM] | TGI (NCI-H522 lung) [µM] | TGI (MCF7 breast) [µM] | TGI (U251 CNS) [µM] | TGI (RXF 393 renal) [µM] | TGI (NCI-H460 lung) [µM] | TGI (SNB-19 CNS) [µM] | TGI (COLO 205 colon) [µM] | TGI (SF-539 CNS) [µM] | TGI (HCC-2998 colon) [µM] | TGI (HCT-116 colon) [µM] | TGI (UO-31 renal) [µM] | TGI (CAKI-1 renal) [µM] | TGI (MDA-MB-231 breast) [µM] | TGI (A549 NSCLC) [µM] | TGI (HOP-62 NSCLC) [µM] | TGI (HT29 colon) [µM]
COc1c2c(cc3oc(C)cc(=O)c13)OC(=N)C(C(N)=O)C2CC(=O)c1ccc(N)cc1 (configuration not stated) | > 100 | > 100 | > 100 | > 100 | > 100 | > 100 | > 100 | > 100 | > 100 | > 100 | > 100 | > 100 | > 100 | > 100 | > 100 | > 100 | > 100 |  | 
CC(C)[C@@H]1NC(=O)[C@H]2N=C(O[C@@H]2C)[C@@H]2CCCN2C(=O)[C@H](Cc2ccccc2)NC(=O)[C@@H]2CSC(=N2)[C@@H](Cc2ccccc2)NC(=O)[C@@H]2CSC1=N2 | > 50 | > 50 | > 50 | > 50 | > 50 | > 50 | > 50 |  | > 50 | > 50 | > 50 | > 50 | > 50 | > 50 | > 50 | > 50 | > 50 | > 50 | > 50
CCCC(=O)NC1=C(NCC)C(=O)c2ccccc2C1=O | > 100 | > 100 | > 100 | > 100 | > 100 | > 100 | > 100 | > 100 | > 100 | > 100 | > 100 | > 100 | > 100 |  |  | > 100 | > 100 | > 100 | > 100
COc1ccc(NC(=O)/C(=N\NC(=O)C[n+]2ccccc2)c2c(O)c3ccc(O)cc3oc2=O)c([N+](=O)[O-])c1 | > 100 | > 100 | > 100 | > 100 | > 100 | > 100 |  | > 100 | > 100 | > 100 | > 100 | > 100 | > 100 | > 100 | > 100 | > 100 | > 100 |  | > 100
COc1ccc(NS(=O)CCCc2ccccc2)cc1 (configuration not stated) | > 100 | > 100 | 71.9 | > 100 | > 100 | > 100 |  | > 100 | > 100 | > 100 | > 100 |  | > 100 | > 100 |  | > 100 | > 100 | > 100 | > 100
O=c1oc2ccccc2cc1/C=N/N1C(=S)N(c2ccccc2)C(=Nc2ccccc2)C1=Nc1ccccc1 | > 100 | > 100 | > 100 | > 100 | > 100 | > 100 | > 100 | > 100 | > 100 | > 100 | > 100 | > 100 | > 100 | > 100 | > 100 | > 100 | > 100 | > 100 | 
CNC(=O)N1CN(c2ccccc2)C2(CCN(CCCC(=O)c3ccc(F)cc3)CC2)C1=O | 35.3 | 87.1 | 33.8 | 56.6 | 16 | 60.4 | 54.6 |  | > 100 | 22.3 | 34 | 22.2 | 24.6 | 28.1 | > 100 | 90.3 | > 100 | 22.8 | 26.9
O=C(NCCCCCCCCNC(=O)c1cc(-c2ccccc2)nc2ccccc12)c1cc(-c2ccccc2)nc2ccccc12 | > 100 | > 100 | > 100 | > 100 | > 100 | > 100 | 84.4 | > 100 | > 100 | > 100 | > 100 |  | > 100 | > 100 | > 100 | > 100 | > 100 | > 100 | > 100
COC(=O)C1C(OC(=O)c2ccccc2)CC2CCC1N2C(N)=O (configuration not stated) | > 100 | > 100 | > 100 | > 100 | > 100 | > 100 |  | > 100 | > 100 | > 100 | > 100 | > 100 | > 100 | > 100 | > 100 | > 100 | > 100 | > 100 | > 100
CCC1(CC)CC(=NNS(=O)(=O)c2ccc(C)cc2)C1 | > 100 | > 100 | > 100 | > 100 | > 100 | > 100 | > 100 | > 100 | > 100 | > 100 | > 100 | > 100 | > 100 | > 100 | > 100 | > 100 | > 100 |  | > 100
CC(=O)OCC(OC(C)=O)C(OC(C)=O)C(C=NN(C(C)=O)S(=O)(=O)c1ccc(/C=C2\NC(=O)NC2=O)cc1)OC(C)=O (configuration not stated) | > 100 | > 100 | > 100 |  | > 100 | > 100 | > 100 | > 100 | > 100 | > 100 | > 100 | > 100 | > 100 | > 100 | > 100 | > 100 | > 100 | > 100 | > 100
Cc1ccc(/C=N/Nc2cnccn2)s1 | > 100 | > 100 | > 100 | > 100 | > 100 | > 100 | > 100 |  | > 100 | > 100 | > 100 | > 100 | > 100 | > 100 | > 100 | > 100 | > 100 | > 100 | > 100
C1=NCCNCCN=Cc2ccc(cc2)OCc2cccc(n2)COc2ccc1cc2 | > 100 | > 100 | > 100 | > 100 | > 100 | > 100 | > 100 | > 100 | > 100 | > 100 | > 100 |  | > 100 | > 100 | > 100 | > 100 | > 100 | 52.9 | > 100
CN(C(=O)Cc1cc(Cl)c(Cl)cc1N=C=S)[C@H]1CCCC[C@@H]1N1CCCC1 | 31.8 | 25.5 | 37.4 | 27.7 | 30.1 | 28.2 | 13.1 | 22 | 27.4 | 26.8 | 46 |  | 21.7 | 29.1 | 29.2 | 28.6 | 30.6 | 27.9 | 18.7
Cc1cc(C)c(C2=NOC(c3ccccc3)(c3cc(=O)n(-c4ccccc4)s3)O2)c(C)c1 (configuration not stated) | 40.1 | 41.3 | 44 | 35.8 | 37.2 | 66.4 | 33.3 | > 100 | > 100 | 63.4 |  | > 100 | > 100 | 47.1 | 33.7 | 95 | > 100 | > 100 | 41.2
Cc1n[nH]c(=O)c2cc(-c3ccccc3)[nH]c12 | > 100 | > 100 | > 100 |  | > 100 | > 100 | > 100 | > 100 | > 100 | 71 | > 100 | > 100 | > 100 | > 100 | > 100 | > 100 | > 100 | > 100 | > 100
C/C(=N\Nc1nc2ccccc2s1)c1ncccn1 | > 100 | 15.8 | > 100 | 16.5 | > 100 | > 100 | 4.68 | 15.6 | > 100 | 1.19 | 20 | 11.9 |  | 0.395 | 5.62 | > 64.6 | > 20 | 5.78 | 
CSc1nc(N)c(NC2OC(CO)C(O)C2O)c(=O)[nH]1 (configuration not stated) | > 100 | > 100 | > 100 | > 100 | > 100 | > 100 | > 100 | > 100 | > 100 | > 100 | > 100 |  | > 100 | > 100 | > 100 | > 100 | > 100 | > 100 | > 100
Cc1cc(=O)[nH]c(NN2C(Cl)C(=O)C2c2ccc(Cl)cc2)n1 (configuration not stated) | 32.3 | 33 | 43.4 |  | 42.5 | 52.4 | 45.1 | 31.1 | 45.2 | 36.2 | 33.3 | 32.1 | 31.1 | > 60.9 | 30.7 | 72 | > 64.8 | 48.6 | 54.9
N#Cc1c(N)oc(-c2cccc([N+](=O)[O-])c2)c1C#N | 61.6 | 68.3 | > 100 | 59.1 | > 100 | 94.5 | 57.3 |  | 74.6 | 44.7 | 57.2 | 33.6 | > 100 | 30.8 | 43.6 | > 100 | > 100 |  | 37.6
COCn1c2ccc(OC(C)=O)cc2c2c(=O)oc(N(C)C)nc21 | > 100 | > 100 | > 100 | > 100 | > 100 | > 100 | > 100 | > 100 | > 100 | > 100 | > 100 | > 100 | > 100 |  | > 100 | > 100 | > 100 | > 100 | > 100
CC1CC[C@@H](C(C)C)[C@H](Oc2nnc(C3OC(CO)C(O)C3O)o2)C1 (some centres not stated) | > 100 | > 100 | > 100 |  | > 100 | > 100 | > 100 | > 100 | > 100 | > 100 | > 100 | > 100 | > 100 | > 100 | > 100 | > 100 | > 100 | > 100 | > 100
N#C/C(=C\c1ccccc1)C(=O)Nc1nnc(-c2ccccc2)o1 | > 100 | > 100 | > 100 | > 100 | > 100 | > 100 | > 100 |  |  | 80.4 |  | > 100 | > 100 | > 100 | 73.2 | > 100 | > 100 | > 100 | > 100
Cc1ccc(N2C(=O)C3c4[nH]c5ccccc5c4C4CCC(C(C)(C)C)CC4C3C2=O)cc1 (configuration not stated) | 22.6 | 14.8 | 36 | 26.5 | > 46 | 16.1 | 22.1 | 17.2 | 21.2 | 22.5 |  | 56.1 | 24.6 | 31.3 | 23.2 | 15.8 | 23.1 | 11.6 | 46.1
Cc1c(/C=N/NC(=S)Nc2ccccc2Cl)c(=O)n(-c2ccccc2)n1C | 79.9 | 50 | > 100 | 60.9 | > 100 | > 100 | 47.9 | > 100 | > 100 | > 100 | > 100 |  | > 100 | > 100 | 81.3 | 35.7 | > 100 | 78.2 | > 100
CC1(CCC2C=CCC2)CCCNC1=S (configuration not stated) | > 10 | > 10 | > 10 |  | > 10 | > 10 | > 10 | > 10 | > 10 |  | > 10 | > 10 | > 10 | > 10 |  | > 10 | > 10 | > 10 | > 10
